Assay results: patent US4245099A, “2-Acyl-6-aminomethylphenol derivatives” (Ono Pharmaceutical Co., Ltd., priority 1978, dated 1981)
Structures can show the parent of a compound that is named as a salt.

Assays:
[1] = tested on: Carrageenan-Induced Edema in Rat Paws; test: Carrageenan-induced edema in rat paws (anti-inflammatory effect); assay type: in vivo; details: 3 h, oral, carrageenan injected one hour after dosing, swelling measured at third hour of carrageenan injection, read-out: % Inhibition of Paw Edema
Experimental: For example, in a laboratory experiment, one hour after oral administration with these compounds, the rats were subcutaneously injected with 0.1 ml of 1% carrageenan suspension on the plantar surface of the right hind paw. The swelling was measured at the third hour of carrageenan injection. Anti-inflammatory effect of the compounds was determined as percentage inhibition of the swelling, taking the swelling in the control groups as 100%.

[2] = tested on: acetic acid stretching in mice; test: Acetic acid stretching method (analgesic effect in mice); assay type: in vivo; details: male mice, oral, 0.6% acetic acid i.p. 30 minutes later, counted for 10 minutes from 5 minutes after injection
Experimental: Male mice were given orally with these compounds and 30 minutes later injected intraperitoneally with 0.1 ml/10 g of 0.6% acetic acid. The number of stretching was countered for 10 minutes from 5 minutes after injection of acetic acid. The value was expressed in the percentage of control.

[3] = tested on: pain threshold of inflamed foot (beer yeast) in rats; test: Randall-Selitto method (analgesic effect in rat); assay type: in vivo; details: male rats, oral, 2 hours after 20% beer yeast into subplantar area
Experimental: Male rats were administered orally with 2-propionyl-4-tert-butyl-6-aminomethylphenol hydrochloride 2 hours after injection of 0.1 ml of 20% suspension beer yeast into subplantar area of one hind paw. Pain threshold determination was made on the normal and inflamed foot, using apparatus similar to that described by Randall-Selitto. Pain threshold change was expressed as percentage of control.

ulcer in rats = test: Sign of ulcer upon oral administration in rats; assay type: in vivo, rat; details: 200 mg/kg

SMILES	inhibition in vivo at 30 mg/kg [1] [%]	other results
CC(C)(C)c1cc(CN)c(O)c(C(=O)c2ccc(Br)cc2)c1 [2-(4-Bromobenzoyl)-4-tert-butyl-6-aminomethylphenol hydrochloride]	35	
CC(C)(C)c1cc(CN)c(O)c(C(=O)c2ccccc2)c1 [2-Benzoyl-4-tert-butyl-6-aminomethylphenol hydrochloride]	47.6	
CC(=O)c1cc(C(C)(C)C)cc(CN)c1O [2-Acetyl-4-tert-butyl-6-aminomethylphenol hydrochloride]	46.7	
CCC(=O)c1cc(C(C)(C)C)cc(CN)c1O.Cl [2-Propionyl-4-tert-butyl-6-aminomethylphenol hydrochloride]	72.8	% Inhibition (acetic acid stretching) ([2]; 10 mg/kg): 35.3%; % Inhibition (acetic acid stretching) ([2]; 20 mg/kg): 61.3%; % Inhibition (acetic acid stretching) ([2]; 50 mg/kg): 85.3%; % Inhibition (Randall-Selitto pain threshold change) ([3]; 50 mg/kg): 70%; % Inhibition (Randall-Selitto pain threshold change) ([3]; 100 mg/kg): 113%; sign of ulcer (ulcer in rats): did not show any sign of ulcer
CC(=O)c1c(O)c(CN)cc2c1CCCC2 [1-Acetyl-3-aminomethyl-5,6,7,8-tetrahydro-2-naphthol hydrochloride]	55.3	
CC(C)(C)c1cc(CN)c(O)c(C(=O)Cc2ccccc2)c1 [2-Phenylacetyl-4-tert-butyl-6-aminomethylphenolhydrochloride]	20.3	
CC(C)(C)c1cc(CN)c(O)c(C(=O)CCl)c1 [2-Chloroacetyl-4-tert-butyl-6-aminomethylphenol hydrochloride]	59.2	
CC(C)C(=O)c1cc(C(C)(C)C)cc(CN)c1O.Cl [2-Isobutyryl-4-tert-butyl-6-aminomethylphenol hydrochloride]	55.5	% Inhibition (acetic acid stretching) ([2]; 50 mg/kg): 49.7%
CCCC(=O)c1cc(C(C)(C)C)cc(CN)c1O [2-Butyryl-4-tert-butyl-6-aminomethylphenol hydrochloride]	34.1	
CC(=O)c1cc2c(c(CN)c1O)CCCC2C (centres unmarked) [1-Aminomethyl-3-acetyl-5-methyl-5,6,7,8-tetrahydro-2-naphthol hydrochloride]	66.3	
CSCCC(=O)c1cc(C(C)(C)C)cc(CN)c1O [2-(3-Methylthiopropionyl)-4-tert-butyl-6-aminomethylphenol hydrochloride]	29.3	
CC(C)(C)c1cc(CN)c(O)c(C(=O)C2CCCCC2)c1 [2-Cyclohexylcarbonyl-4-tert-butyl-6-aminomethylphenol hydrochloride]	27.1	
CCC(=O)c1c(O)c(CN)cc2c1CCCC2 [1-Propionyl-3-aminomethyl-5,6,7,8-tetrahydro-2-naphthol hydrochloride]	37.4	
